According to the NIST ThermoML archive (doi:10.1016/j.jct.2016.03.029):

What was measured:
[1] = refractive index (Na D-line) (dimensionless); conditions: 100 kPa, Liquid, Standard Abbe refractometry
[2] = 100 kPa, Liquid; for speed of sound: Frequency=3 MHz, Sing-around technique in a fixed-path interferometer; for mass density: Vibrating tube method
[3] = xn = mol fraction of the nth substance listed; conditions: 100 kPa, Liquid, x2 = 0; for speed of sound: Frequency=3 MHz, Sing-around technique in a fixed-path interferometer; for mass density: Vibrating tube method
[4] = refractive index (Na D-line) (dimensionless); xn = mol fraction of the nth substance listed; conditions: 100 kPa, Liquid, Standard Abbe refractometry, x2 = 0

CCCC[n+]1ccn(C)c1.O=S(=O)([N-]S(=O)(=O)C(F)(F)F)C(F)(F)F
Conditions	mass density, [2] [kg/m3]	refractive index, [1]	speed of sound, [2] [m/s]
298.15 K	1433.72	1.42671	1227.9
303.15 K	1428.92	1.42522	1216.8
308.15 K	1424.13	1.42373	1205.8
313.15 K	1419.36	1.42225	1195
318.15 K	1414.61	1.42076	1184.2
323.15 K	1409.88	1.41923	1173.6

CN1CCCC1=O [N-methylpyrrolidone]
Conditions	mass density, [2] [kg/m3]	refractive index, [1]	speed of sound, [2] [m/s]
298.15 K	1027.1	1.46838	1543.8
303.15 K	1022.64	1.46626	1524.3
308.15 K	1018.18	1.46412	1505
313.15 K	1013.72	1.46199	1485.7
318.15 K	1009.25	1.45983	1466.7
323.15 K	1004.79	1.45771	1447.8

CN1CCCC1=O [N-methylpyrrolidone] + CCCC[n+]1ccn(C)c1.O=S(=O)([N-]S(=O)(=O)C(F)(F)F)C(F)(F)F
Conditions	mass density, [3] [kg/m3]	refractive index, [4]	speed of sound, [3] [m/s]
298.15 K	1027.1	1.46838	1543.8
303.15 K	1022.64	1.46626	1524.3
308.15 K	1018.18	1.46412	1505
313.15 K	1013.72	1.46199	1485.7
318.15 K	1009.25	1.45983	1466.7
323.15 K	1004.79	1.45771	1447.8
